We go through seven molecules from ChEMBL document CHEMBL1201862, “PubChem BioAssay data set” (2004).

Among the test systems are NCI-H522; NCI-H226; SK-MEL-5; IGROV-1; M14; KM-20L2; CAKI-1; UO-31; OVCAR-4; MOLT-4; SF-295; COLO 205; SNB-19; NCI-H23; CCRF-CEM; HCC 2998; LOX IMVI; KM12; 786-0; MDA-N.
Holding throughout (assay): inhibition of tumour cell growth, NCI panel, 48 h

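1) Cells in 96-well plates. 2) Compound, 48 h, 5 concentrations. 3) Linear interpolation between surrounding doses. 4) Unreached endpoint = highest concentration. The concentration for 50% growth inhibition is given as GI50.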 The source made the active and inactive calls. Rule as the data show it: active = GI50 up to about 1.1 µM and inactive = higher.

In the case of `Cc1cccc(C2=C/C(=C(\SS/C(C(=O)c3ccc(OCC(=O)O)c(Cl)c3Cl)=C3\C=C(c4cccc(C)c4)SS3)C(=O)c3ccc(OCC(=O)O)c(Cl)c3Cl)SS2)c1`, the GI50 was 2.12 µM (inactive) with NCI-H522; 12.1 µM (inactive) with NCI-H226; 15.9 µM (inactive) with SK-MEL-5; 12.1 µM (inactive) with IGROV-1; 22.1 µM (inactive) in the assay with M14; 47.1 µM (inactive) in the assay with KM-20L2. In addition, the GI50 in the assay on CAKI-1 is 23.1 µM (inactive); in the assay on UO-31 it was 13 µM (inactive); in the assay with OVCAR-4, 17.2 µM (inactive); with MOLT-4, 13.6 µM (inactive); in the assay with SF-295, 24.5 µM (inactive); in the assay on COLO 205 it was 7.94 µM (inactive). The GI50 is 10.9 µM (inactive) in the assay with SNB-19; 12.1 µM (inactive) in the assay on NCI-H23; 4.71 µM (inactive) in the assay on CCRF-CEM; 31 µM (inactive) in the assay with HCC 2998; 4.69 µM (inactive) in the assay on LOX IMVI; 23.3 µM (inactive) with KM12. The GI50 in the assay with 786-0 is 20 µM (inactive).
Take `N#CC(C#N)=C1NC(=O)CC(=O)N1`: the GI50 in the assay with NCI-H522, with NCI-H226, in the assay on SK-MEL-5, in the assay with IGROV-1, in the assay on M14 and in the assay on KM-20L2 was > 100 µM (inactive) in each case. Also, the GI50 in the assay with CAKI-1, in the assay on UO-31, with OVCAR-4, in the assay with MOLT-4, in the assay on SF-295 and in the assay on COLO 205 was > 100 µM (inactive) in each case. The GI50 in the assay on SNB-19, in the assay on NCI-H23, in the assay with CCRF-CEM, in the assay with HCC 2998, in the assay with LOX IMVI and in the assay on KM12 was > 100 µM (inactive) each time. Moreover, the GI50 in the assay with 786-0 was > 100 µM (inactive).
As to `CN1CCN(CCn2c3c4ccccc4ccc3c3oc(=O)c4ccccc4c32)CC1`, the GI50 in the assay on NCI-H522 is 4.55 µM (inactive); in the assay on NCI-H226 it was 16.6 µM (inactive); in the assay with SK-MEL-5, 1.78 µM (inactive); in the assay with IGROV-1, 13.2 µM (inactive); in the assay with M14, 1.68 µM (inactive); in the assay on KM-20L2, 2.58 µM (inactive). The GI50 was 4.97 µM (inactive) in the assay with CAKI-1; 2.19 µM (inactive) with UO-31; 2.26 µM (inactive) in the assay with OVCAR-4; 1.5 µM (inactive) in the assay with MOLT-4; 4.21 µM (inactive) with SF-295; 1.56 µM (inactive) in the assay on MDA-N. The GI50 is 1.8 µM (inactive) in the assay with COLO 205; 4.51 µM (inactive) in the assay with SNB-19; 5.83 µM (inactive) in the assay on NCI-H23; 1.56 µM (inactive) in the assay with CCRF-CEM; 1.87 µM (inactive) with HCC 2998; 2.42 µM (inactive) with KM12. Further, the GI50 with 786-0 is 1.73 µM (inactive).
As to `Cc1c(C(=O)C/C(=N/NC(=O)C[n+]2ccccc2)C(=O)Nc2ccccc2)[n+]([O-])c2ccccc2[n+]1[O-]`, the GI50 with NCI-H522, in the assay with NCI-H226, in the assay with SK-MEL-5, with IGROV-1, with M14 and in the assay with KM-20L2 was > 100 µM (inactive) each time. For the same molecule, the GI50 in the assay on CAKI-1, with UO-31, in the assay with OVCAR-4, with MOLT-4, in the assay with SF-295 and with COLO 205 was > 100 µM (inactive) each time. The GI50 with SNB-19, with NCI-H23, with CCRF-CEM, with HCC 2998, with LOX IMVI and in the assay on KM12 was > 100 µM (inactive) each time. For the same molecule, the GI50 with 786-0 was > 100 µM (inactive).
With `COc1nc(OC)nc(Sc2ccc(Sc3ccc(Sc4nc(OC)nc(OC)n4)cc3)cc2)n1`, the GI50 in the assay with NCI-H522, with NCI-H226, in the assay with SK-MEL-5, with IGROV-1, with M14 and in the assay on KM-20L2 was > 100 µM (inactive) throughout. Besides, the GI50 in the assay on CAKI-1, in the assay on UO-31, in the assay with OVCAR-4, with MOLT-4, with SF-295 and with COLO 205 was > 100 µM (inactive) in each case. For the same molecule, the GI50 with SNB-19, in the assay on NCI-H23, in the assay on CCRF-CEM, in the assay on HCC 2998, in the assay with LOX IMVI and in the assay with KM12 was > 100 µM (inactive) in each case. The GI50 in the assay on 786-0 is > 100 µM (inactive).
Consider `COc1c(OC2OC(CO)C(O)C(O)C2O)cc2c(c1OC)-c1ccc(OC)c(=O)cc1C(NC(C)=O)CC2` (centres undefined), for which the GI50 with NCI-H522 was > 100 µM (inactive); with NCI-H226, > 100 µM (inactive); in the assay on SK-MEL-5, 35.4 µM (inactive); in the assay with IGROV-1, > 84.1 µM (inactive); with M14, > 100 µM (inactive); with KM-20L2 it was > 100 µM (inactive). The GI50 in the assay on CAKI-1 was > 100 µM (inactive); in the assay with UO-31, > 100 µM (inactive); with OVCAR-4, > 100 µM (inactive); in the assay on MOLT-4, > 100 µM (inactive); with SF-295, > 87.3 µM (inactive); with COLO 205 it was > 28.3 µM (inactive). Also, the GI50 in the assay on SNB-19, in the assay with NCI-H23, with CCRF-CEM, in the assay on HCC 2998, with LOX IMVI and with KM12 was > 100 µM (inactive) in each case. The GI50 in the assay on 786-0 was > 100 µM (inactive).
Turning to `C=C1C(=O)OC2C(C)C3C=CC(=O)[C@@]3(C)C(OC(=O)/C(C)=C/C)C1[C@@H]2OC(C)=O` (some centres undefined), the GI50 in the assay with NCI-H522 was 0.131 µM (active); in the assay on NCI-H226 it was 1.73 µM (inactive); with SK-MEL-5, 1.46 µM (inactive); in the assay on IGROV-1, 0.78 µM (active); with M14, 0.673 µM (active); in the assay on KM-20L2 it was 1.51 µM (inactive). Besides, the GI50 is 0.553 µM (active) in the assay with CAKI-1; 1.21 µM (inactive) in the assay with UO-31; 0.822 µM (active) with OVCAR-4; 0.334 µM (active) in the assay with MOLT-4; 1.43 µM (inactive) with SF-295; 0.252 µM (active) in the assay on MDA-N. Besides, the GI50 in the assay on COLO 205 is 0.333 µM (active); in the assay with SNB-19 it was 1.89 µM (inactive); with NCI-H23, 0.467 µM (active); in the assay with CCRF-CEM, 0.22 µM (active); with HCC 2998, 1.75 µM (inactive); in the assay with LOX IMVI it was 0.243 µM (active). Moreover, the GI50 in the assay with KM12 is 1.46 µM (inactive); in the assay with 786-0, 0.231 µM (active).
